# According to patent US4201769A, “Antibiotic substances No. 17927A1 and No. 17927A2 and process for producing the same” (Sankyo Company Limited, priority 1977, dated 1980):
# Where two headings read alike, the source gives them in different places.
# Columns and labels:
# Format in all cases: cell-based
# Escherichia coli 640 = assay: Synergistic action with Ampicillin (MIC)
# Description: (§1) (13) Synergistic action: Synergistic action of the substance No. 17927A2 having 0.23 μg/ml of I50 (50% Inhibitory concentration) against β-lactamase produced from Proteus morganii with Cephaloridine or Ampicillin are summarized in Tables 6 and 7.
# Escherichia coli 718 = assay: Synergistic action with Ampicillin (MIC)
# Description: as §1
# Proteus rettgeri 1603 = assay: Synergistic action with Ampicillin or Cephaloridine (MIC)
# Description: as §1
# (§2) (13) Synergistic action: Synergistic action of the substance No. 17927A1 having 0.27 μg/ml of I50 (50% Inhibitory concentration) against β-lactamase produced from Proteus morganii with Cephaloridine are summarized in Table 10.
# [1] = tested on: Klebsiella pneumoniae 847; assay: Synergistic action with Cephaloridine (MIC)
# Description: as §1, §2
# Proteus inconstans 1708 = assay: Synergistic action with Cephaloridine (MIC)
# Description: as §1, §2
# Escherichia coli 609 = assay: Synergistic action with Cephaloridine (MIC)
# Description: as §2
# Proteus mirabilis 1332 = assay: Synergistic action with Cephaloridine (MIC)
# Description: as §2
# Proteus morganii 1510 = assay: Synergistic action with Cephaloridine (MIC)
# Description: as §2
# [2] = No. 17927A2 coexisted 0.1 μg/ml
# [3] = No. 17927A1 coexisted 0.1 μg/ml
# [4] = No. 17927A1 coexisted 0.4 μg/ml
compound,measurement,setting,value
CC1(C)S[C@@H]2[C@H](NC(=O)[C@H](N)c3ccccc3)C(=O)N2[C@H]1C(=O)O [Ampicillin],MIC,"Escherichia coli 640; Escherichia coli, 640, read-out: MIC, Ampicillin alone",25 µg/mL
same,"MIC, Ampicillin with No. 17927A2 coexisted",Escherichia coli 640; [2],1.56 µg/mL
same,MIC,"Escherichia coli 718; Escherichia coli, 718, read-out: MIC, Ampicillin alone",800 µg/mL
same,"MIC, Ampicillin with No. 17927A2 coexisted",Escherichia coli 718; [2],25 µg/mL
same,"MIC, Ampicillin with No. 17927A2 coexisted",Proteus rettgeri 1603; [2],50 µg/mL
same,MIC,"Proteus rettgeri 1603; Providencia rettgeri, 1603, read-out: MIC, Ampicillin alone",100 µg/mL
O=C(Cc1cccs1)N[C@@H]1C(=O)N2C(C(=O)[O-])=C(C[n+]3ccccc3)CS[C@H]12 [Cephaloridine],MIC,"[1]; Klebsiella pneumoniae, 847, read-out: MIC, Cephaloridine alone",100 µg/mL
same,"MIC, Cephaloridine with No. 17927A1 coexisted",[1]; [3],12.5 µg/mL
same,"MIC, Cephaloridine with No. 17927A1 coexisted",[1]; [4],12.5 µg/mL
same,"MIC, Cephaloridine with No. 17927A2 coexisted",[1]; [2],12.5 µg/mL
same,"MIC, Cephaloridine with No. 17927A1 coexisted",Proteus inconstans 1708; [3],6.25 µg/mL
same,"MIC, Cephaloridine with No. 17927A1 coexisted",Proteus inconstans 1708; [4],3.13 µg/mL
same,"MIC, Cephaloridine with No. 17927A2 coexisted",Proteus inconstans 1708; [2],12.5 µg/mL
same,MIC,"Proteus inconstans 1708; Providencia alcalifaciens, 1708, read-out: MIC, Cephaloridine alone",1600 µg/mL
same,"MIC, Cephaloridine with No. 17927A1 coexisted",Proteus rettgeri 1603; [3],50 µg/mL
same,"MIC, Cephaloridine with No. 17927A1 coexisted",Proteus rettgeri 1603; [4],25 µg/mL
same,MIC,"Proteus rettgeri 1603; Providencia rettgeri, 1603, read-out: MIC, Cephaloridine alone",1600 µg/mL
same,MIC,"Escherichia coli 609; Escherichia coli, 609, read-out: MIC, Cephaloridine alone",100 µg/mL
same,"MIC, Cephaloridine with No. 17927A1 coexisted",Escherichia coli 609; [3],100 µg/mL
same,"MIC, Cephaloridine with No. 17927A1 coexisted",Escherichia coli 609; [4],50 µg/mL
same,"MIC, Cephaloridine with No. 17927A1 coexisted",Proteus mirabilis 1332; [3],50 µg/mL
same,"MIC, Cephaloridine with No. 17927A1 coexisted",Proteus mirabilis 1332; [4],50 µg/mL
same,MIC,"Proteus mirabilis 1332; Proteus mirabilis, 1332, read-out: MIC, Cephaloridine alone",100 µg/mL
same,MIC,"Proteus morganii 1510; Morganella morganii, 1510, read-out: MIC, Cephaloridine alone",1600 µg/mL
same,"MIC, Cephaloridine with No. 17927A1 coexisted",Proteus morganii 1510; [3],50 µg/mL
same,"MIC, Cephaloridine with No. 17927A1 coexisted",Proteus morganii 1510; [4],50 µg/mL
